According to patent US20020026053A1, “Novel 3-(substituted) -2- indolinones compounds and use thereof as inhibitors of protein kinase activity” (priority 1997, published 2002):

The compounds below were run against T1, Met receptor (EGFR/Met chimeric cells, EMR) (Homo sapiens, UniProt P08581) (assay: Met Autophosphorylation Assay). Conditions: protocol P.130.
T1 construct: expressed in transfected cells; the other entry of the earlier key: EGFR (P00533, Epidermal growth factor receptor)
Format: biochemical
Outline: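 Transiently transfected EGFR/Met chimeric (EMR) cells were lysed in HNTG with 1 mM PMSF. Met was captured on plates coated with goat anti-rabbit IgG, then rabbit anti-Met (C-28), using 90 μg lysate/100 μl for 60 min at room temperature. Phosphotyrosine was read by ELISA.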

T1 sequence (P08581 with tags, fused parts or gaps): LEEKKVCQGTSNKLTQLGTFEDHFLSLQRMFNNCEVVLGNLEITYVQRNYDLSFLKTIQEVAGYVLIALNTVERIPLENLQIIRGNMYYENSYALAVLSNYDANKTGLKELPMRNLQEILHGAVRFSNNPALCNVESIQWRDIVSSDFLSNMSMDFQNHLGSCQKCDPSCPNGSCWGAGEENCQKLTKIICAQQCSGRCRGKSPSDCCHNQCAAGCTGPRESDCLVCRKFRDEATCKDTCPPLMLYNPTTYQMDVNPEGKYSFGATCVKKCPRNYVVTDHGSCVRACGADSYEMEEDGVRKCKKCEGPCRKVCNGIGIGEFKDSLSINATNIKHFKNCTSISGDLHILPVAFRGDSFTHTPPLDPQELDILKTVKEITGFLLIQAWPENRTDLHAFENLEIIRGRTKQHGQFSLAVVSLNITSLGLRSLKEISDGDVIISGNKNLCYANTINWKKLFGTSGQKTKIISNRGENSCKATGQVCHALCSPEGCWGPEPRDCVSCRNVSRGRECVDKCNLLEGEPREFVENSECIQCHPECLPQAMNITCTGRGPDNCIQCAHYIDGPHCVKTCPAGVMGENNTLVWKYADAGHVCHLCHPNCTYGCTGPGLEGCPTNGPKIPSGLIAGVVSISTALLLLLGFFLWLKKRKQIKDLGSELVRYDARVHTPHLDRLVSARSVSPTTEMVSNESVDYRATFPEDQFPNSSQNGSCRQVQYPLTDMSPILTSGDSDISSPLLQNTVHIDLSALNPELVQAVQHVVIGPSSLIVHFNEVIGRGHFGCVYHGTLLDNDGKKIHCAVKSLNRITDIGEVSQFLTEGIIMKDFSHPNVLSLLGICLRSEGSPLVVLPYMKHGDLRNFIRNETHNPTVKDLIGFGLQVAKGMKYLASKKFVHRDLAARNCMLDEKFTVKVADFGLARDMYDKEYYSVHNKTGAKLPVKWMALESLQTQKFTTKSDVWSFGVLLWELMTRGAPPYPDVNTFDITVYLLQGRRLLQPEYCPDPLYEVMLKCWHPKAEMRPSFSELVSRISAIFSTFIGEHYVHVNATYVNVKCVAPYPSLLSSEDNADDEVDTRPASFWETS

Row | Structure (SMILES) | Met Kinase % Inhibition (P.130)
1 | Cc1c(Br)cc(Br)c2c1C(=Cc1cc(O)cc(O)c1)C(=O)N2 [10738/H07] | 77.2%
2 | Cc1c(Br)cc(Br)c2c1C(=Cc1ccc(Cl)c(Cl)c1)C(=O)N2 [10738/H08] | 20.7%
3 | COc1ccccc1C=C1C(=O)Nc2c(Br)cc(Br)c(C)c21 [10738/H09] | 52.3%
4 | Cc1c(Br)cc(Br)c2c1C(=Cc1ccc(C(C)C)cc1)C(=O)N2 [10738/H10] | 27.7%
5 | CCCOc1ccc(C=C2C(=O)Nc3c(Br)cc(Br)c(C)c32)cc1 [10738/H11] | 24.9%
6 | COc1ccc(C=C2C(=O)Nc3c(Br)cc(Br)cc32)cc1C [10739/A02] | 41.8%
7 | O=C1Nc2c(Br)cc(Br)cc2C1=Cc1cccc(OCc2ccccc2)c1 [10739/A03] | 37.4%
8 | O=C1Nc2c(Br)cc(Br)cc2C1=Cc1ccc(OCc2ccccc2)cc1 [10739/A04] | 45.2%
9 | O=C1Nc2c(Br)cc(Br)cc2C1=CC1COc2ccccc2O1 (stereo not drawn) [10739/A05] | 36.5%
10 | O=C1Nc2c(Br)cc(Br)cc2C1=Cc1ccc(O)cc1Cl [10739/A06] | 70.1%
11 | O=C1Nc2c(Br)cc(Br)cc2C1=Cc1cc(O)c(O)c(O)c1 [10739/A07] | 99.9%
12 | COc1ccc(Oc2cccc(C=C3C(=O)Nc4c(Br)cc(Br)cc43)c2)cc1 [10739/A08] | 39.9%
13 | CN(C)CCCOc1ccc(C=C2C(=O)Nc3c(Br)cc(Br)cc32)cc1 [10739/A09] | 60.4%
14 | O=C1Nc2c(Br)cc(Br)cc2C1=Cc1ccoc1 [10739/A10] | 81.2%
15 | O=C1Nc2c(Br)cc(Br)cc2C1=Cc1ccc(CO)o1 [10739/A11] | 82.8%
16 | COc1ccc(C=C2C(=O)Nc3ccc(I)cc32)cc1C [10739/B02] | 68.1%
17 | O=C1Nc2ccc(I)cc2C1=Cc1cccc(OCc2ccccc2)c1 [10739/B03] | 62.4%
18 | O=C1Nc2ccc(I)cc2C1=Cc1ccc(OCc2ccccc2)cc1 [10739/B04] | 65.1%
19 | O=C1Nc2ccc(I)cc2C1=CC1COc2ccccc2O1 (stereo not drawn) [10739/B05] | 74.0%
20 | O=C1Nc2ccc(I)cc2C1=Cc1ccc(O)cc1Cl [10739/B06] | 68.1%
21 | O=C1Nc2ccc(I)cc2C1=Cc1cc(O)c(O)c(O)c1 [10739/B07] | 98.7%
22 | COc1ccc(Oc2cccc(C=C3C(=O)Nc4ccc(I)cc43)c2)cc1 [10739/B08] | 65.8%
23 | CN(C)CCCOc1ccc(C=C2C(=O)Nc3ccc(I)cc32)cc1 [10739/B09] | 63.5%
24 | O=C1Nc2ccc(I)cc2C1=Cc1ccoc1 [10739/B10] | 70.6%
25 | O=C1Nc2ccc(I)cc2C1=Cc1ccc(CO)o1 [10739/B11] | 84.9%
26 | COc1ccc(C=C2C(=O)Nc3ccc(Br)c(C)c32)cc1C [10739/C02] | 34.7%

Row | Structure (SMILES) | Met Kinase % Inhibition (P.130)
27 | Cc1c(Br)ccc2c1C(=Cc1cccc(OCc3ccccc3)c1)C(=O)N2 [10739/C03] | 10.9%
28 | Cc1c(Br)ccc2c1C(=Cc1ccc(OCc3ccccc3)cc1)C(=O)N2 [10739/C04] | −3.6%
29 | Cc1c(Br)ccc2c1C(=CC1COc3ccccc3O1)C(=O)N2 (stereo not drawn) [10739/C05] | 34.7%
30 | Cc1c(Br)ccc2c1C(=Cc1ccc(O)cc1Cl)C(=O)N2 [10739/C06] | 56.1%
31 | Cc1c(Br)ccc2c1C(=Cc1cc(O)c(O)c(O)c1)C(=O)N2 [10739/C07] | 93.0%
32 | COc1ccc(Oc2cccc(C=C3C(=O)Nc4ccc(Br)c(C)c43)c2)cc1 [10739/C08] | 9.1%
33 | Cc1c(Br)ccc2c1C(=Cc1ccc(OCCCN(C)C)cc1)C(=O)N2 [10739/C09] | 76.3%
34 | Cc1c(Br)ccc2c1C(=Cc1ccoc1)C(=O)N2 [10739/C10] | 66.3%
35 | Cc1c(Br)ccc2c1C(=Cc1ccc(CO)o1)C(=O)N2 [10739/C11] | 61.0%
36 | CNS(=O)(=O)c1ccc2c(c1)C(=Cc1ccc(OC)c(C)c1)C(=O)N2 [10739/D02] | 29.0%
37 | CNS(=O)(=O)c1ccc2c(c1)C(=Cc1cccc(OCc3ccccc3)c1)C(=O)N2 [10739/D03] | 15.9%
38 | CNS(=O)(=O)c1ccc2c(c1)C(=Cc1ccc(OCc3ccccc3)cc1)C(=O)N2 [10739/D04] | 11.1%
39 | CNS(=O)(=O)c1ccc2c(c1)C(=CC1COc3ccccc3O1)C(=O)N2 (stereo not drawn) [10739/D05] | 30.0%
40 | CNS(=O)(=O)c1ccc2c(c1)C(=Cc1ccc(O)cc1Cl)C(=O)N2 [10739/D06] | 59.2%
41 | CNS(=O)(=O)c1ccc2c(c1)C(=Cc1cc(O)c(O)c(O)c1)C(=O)N2 [10739/D07] | 86.0%
42 | CNS(=O)(=O)c1ccc2c(c1)C(=Cc1cccc(Oc3ccc(OC)cc3)c1)C(=O)N2 [10739/D08] | 5.2%
43 | CNS(=O)(=O)c1ccc2c(c1)C(=Cc1ccc(OCCCN(C)C)cc1)C(=O)N2 [10739/D09] | 66.7%
44 | COc1ccc(C=C2C(=O)Nc3ccc(S(=O)(=O)Nc4ccc(C(F)(F)F)cc4)cc32)cc1C [10739/E02] | 30.0%
45 | O=C1Nc2ccc(S(=O)(=O)Nc3ccc(C(F)(F)F)cc3)cc2C1=Cc1cccc(OCc2ccccc2)c1 [10739/E03] | −3.4%
46 | O=C1Nc2ccc(S(=O)(=O)Nc3ccc(C(F)(F)F)cc3)cc2C1=Cc1ccc(OCc2ccccc2)cc1 [10739/E04] | −15.2%
47 | O=C1Nc2ccc(S(=O)(=O)Nc3ccc(C(F)(F)F)cc3)cc2C1=CC1COc2ccccc2O1 (stereo not drawn) [10739/E05] | 8.9%
48 | O=C1Nc2ccc(S(=O)(=O)Nc3ccc(C(F)(F)F)cc3)cc2C1=Cc1ccc(O)cc1Cl [10739/E06] | 66.3%
49 | O=C1Nc2ccc(S(=O)(=O)Nc3ccc(C(F)(F)F)cc3)cc2C1=Cc1cc(O)c(O)c(O)c1 [10739/E07] | 94.0%
50 | COc1ccc(Oc2cccc(C=C3C(=O)Nc4ccc(S(=O)(=O)Nc5ccc(C(F)(F)F)cc5)cc43)c2)cc1 [10739/E08] | 16.1%
51 | CN(C)CCCOc1ccc(C=C2C(=O)Nc3ccc(S(=O)(=O)Nc4ccc(C(F)(F)F)cc4)cc32)cc1 [10739/E09] | 33.8%
52 | O=C1Nc2ccc(S(=O)(=O)Nc3ccc(C(F)(F)F)cc3)cc2C1=Cc1ccoc1 [10739/E10] | 71.9%

Row | Structure (SMILES) | Met Kinase % Inhibition (P.130)
53 | O=C1Nc2ccc(S(=O)(=O)Nc3ccc(C(F)(F)F)cc3)cc2C1=Cc1ccc(CO)o1 [10739/E11] | 76.9%
54 | COc1ccc(C=C2C(=O)Nc3ccc(S(=O)(=O)N4CCOCC4)cc32)cc1C [10739/F02] | 50.8%
55 | O=C1Nc2ccc(S(=O)(=O)N3CCOCC3)cc2C1=Cc1cccc(OCc2ccccc2)c1 [10739/F03] | 38.8%
56 | O=C1Nc2ccc(S(=O)(=O)N3CCOCC3)cc2C1=Cc1ccc(OCc2ccccc2)cc1 [10739/F04] | 30.4%
57 | O=C1Nc2ccc(S(=O)(=O)N3CCOCC3)cc2C1=CC1COc2ccccc2O1 (stereo not drawn) [10739/F05] | −5.4%
58 | O=C1Nc2ccc(S(=O)(=O)N3CCOCC3)cc2C1=Cc1ccc(O)cc1Cl [10739/F06] | 56.3%
59 | O=C1Nc2ccc(S(=O)(=O)N3CCOCC3)cc2C1=Cc1cc(O)c(O)c(O)c1 [10739/F07] | 100.5%
60 | COc1ccc(Oc2cccc(C=C3C(=O)Nc4ccc(S(=O)(=O)N5CCOCC5)cc43)c2)cc1 [10739/F08] | 13.4%
61 | CN(C)CCCOc1ccc(C=C2C(=O)Nc3ccc(S(=O)(=O)N4CCOCC4)cc32)cc1 [10739/F09] | −7.0%
62 | O=C1Nc2ccc(S(=O)(=O)N3CCOCC3)cc2C1=Cc1ccoc1 [10739/F10] | 40.4%
63 | O=C1Nc2ccc(S(=O)(=O)N3CCOCC3)cc2C1=Cc1ccc(CO)o1 [10739/F11] | 40.9%
64 | COc1ccc(C=C2C(=O)Nc3ccc(CCCl)cc32)cc1C [10739/G02] | 12.9. %
65 | O=C1Nc2ccc(CCCl)cc2C1=Cc1cccc(OCc2ccccc2)c1 [10739/G03] | 9.3%
66 | O=C1Nc2ccc(CCCl)cc2C1=Cc1ccc(OCc2ccccc2)cc1 [10739/G04] | 4.1%
67 | O=C1Nc2ccc(CCCl)cc2C1=CC1COc2ccccc2O1 (stereo not drawn) [10739/G05] | 27.7%
68 | O=C1Nc2ccc(CCCl)cc2C1=Cc1ccc(O)cc1Cl [10739/G06] | 27.7%
69 | O=C1Nc2ccc(CCCl)cc2C1=Cc1cc(O)c(O)c(O)c1 [10739/G07] | 92.6%
70 | COc1ccc(Oc2cccc(C=C3C(=O)Nc4ccc(CCCl)cc43)c2)cc1 [10739/G08] | 20.9%
71 | CN(C)CCCOc1ccc(C=C2C(=O)Nc3ccc(CCCl)cc32)cc1 [10739/G09] | 46.1%
72 | O=C1Nc2ccc(CCCl)cc2C1=Cc1ccoc1 [10739/G10] | 36.5%
73 | O=C1Nc2ccc(CCCl)cc2C1=Cc1ccc(CO)o1 [10739/G11] | 56.7%
74 | COc1ccc(C=C2C(=O)Nc3c(Br)cc(Br)c(C)c32)cc1C [10739/H02] | 26.6%
75 | Cc1c(Br)cc(Br)c2c1C(=Cc1cccc(OCc3ccccc3)c1)C(=O)N2 [10739/H03] | 10.4%
76 | Cc1c(Br)cc(Br)c2c1C(=Cc1ccc(OCc3ccccc3)cc1)C(=O)N2 [10739/H04] | −2.7%
77 | Cc1c(Br)cc(Br)c2c1C(=Cc1ccc(O)cc1Cl)C(=O)N2 [10739/H06] | 42.2%
78 | Cc1c(Br)cc(Br)c2c1C(=Cc1cc(O)c(O)c(O)c1)C(=O)N2 [10739/H07] | 93.7%
